Test [1] addresses T1, hCA IX (Homo sapiens, UniProt Q16790).
T1 construct: made in house
Format: biochemical.

Test [2] concerns the target hCA VII (Homo sapiens, UniProt P43166). Conditions: read-out: KI hCA VII; stopped-flow CO2 hydrase assay; mean from three different assays, errors ±5–10%.
In test [3] the target is hCA XII (Homo sapiens, UniProt O43570). The note with it: read-out: KI hCA XII; stopped-flow CO2 hydrase assay; mean from three different assays, errors ±5–10%.
Test [4] has as its target hCA II (Homo sapiens, UniProt P00918). Conditions: for Ki: read-out: KI hCA II, stopped-flow CO2 hydrase assay, mean from three different assays, errors ±5–10%.
The target in test [5] is T2, TRPV1 receptor (Homo sapiens, UniProt Q8NER1).
T2 construct: expressed in transfected cells
The experiment in a line: TRPV1 assay, Fluo-4NW fluorescence in SH-SY5Y-TRPV1 cells. Format: cell-based. Conditions: read-out: EC50 on TRPV1 receptor activity (agonism). Here is the method:
SH-SY5Y-TRPV1 cells (kindly provided by Johanna Lilja and Anna Forsby (University of Stockholm, Stockholm, Sweden))[40] were cultured in 96 wells. Upon 90% confluence had been reached, the cells were loaded with 5 μM Fluo-4NW for 1 h at 37 °C. […] Briefly, after measuring the basal fluorescence of the plate (four cycles), testing compounds were added to the plate, and the fluorescence was measured for additional 10 cycles; thereafter, 10 μM capsaicin was added with a microinjector and the fluorescence was monitored for an additional 10 cycles.

Test [6] deals with hCA IV (Homo sapiens, UniProt P22748). Conditions: read-out: KI hCA IV; stopped-flow CO2 hydrase assay; mean from three different assays, errors ±5–10%.
The target of test [7] is hCA I (Homo sapiens, UniProt P00915). The note with it: read-out: KI hCA I; stopped-flow CO2 hydrase assay; mean from three different assays, errors ±5–10%.
Test [8] has as its system oxaliplatin-induced neuropathic pain (cold allodynia). The experiment in a line: Cold plate test in mouse model of oxaliplatin-induced neuropathic pain. The class given is in vivo. Conditions: p.o., acute; for pain-relieving effect (licking latency, Cold plate test), in words: 10–100 mg/kg; for time of peak pain-relieving effect post-administration: up to 100 mg/kg.

Entries after “also recorded” stand apart in the source; their conditions may differ.

Sequence of hCA I (P00915 whole entry): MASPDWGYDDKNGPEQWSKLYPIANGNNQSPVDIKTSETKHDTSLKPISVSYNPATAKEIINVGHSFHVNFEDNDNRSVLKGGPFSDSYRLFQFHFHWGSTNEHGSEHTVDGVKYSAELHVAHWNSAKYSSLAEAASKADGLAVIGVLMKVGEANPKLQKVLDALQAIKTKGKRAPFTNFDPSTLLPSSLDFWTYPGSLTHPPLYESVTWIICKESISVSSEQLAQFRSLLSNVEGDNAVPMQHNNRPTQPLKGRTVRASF
Sequence of hCA XII (O43570 25-354): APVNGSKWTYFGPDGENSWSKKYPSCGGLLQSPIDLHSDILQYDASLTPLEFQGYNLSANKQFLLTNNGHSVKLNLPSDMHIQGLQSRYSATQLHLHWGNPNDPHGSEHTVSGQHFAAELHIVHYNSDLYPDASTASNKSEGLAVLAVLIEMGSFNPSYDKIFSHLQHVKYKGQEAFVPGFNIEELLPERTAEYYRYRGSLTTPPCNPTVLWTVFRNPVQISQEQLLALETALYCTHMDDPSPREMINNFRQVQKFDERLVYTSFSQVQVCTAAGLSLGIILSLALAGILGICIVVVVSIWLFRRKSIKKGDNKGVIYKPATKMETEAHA
Sequence of hCA VII (P43166 whole entry): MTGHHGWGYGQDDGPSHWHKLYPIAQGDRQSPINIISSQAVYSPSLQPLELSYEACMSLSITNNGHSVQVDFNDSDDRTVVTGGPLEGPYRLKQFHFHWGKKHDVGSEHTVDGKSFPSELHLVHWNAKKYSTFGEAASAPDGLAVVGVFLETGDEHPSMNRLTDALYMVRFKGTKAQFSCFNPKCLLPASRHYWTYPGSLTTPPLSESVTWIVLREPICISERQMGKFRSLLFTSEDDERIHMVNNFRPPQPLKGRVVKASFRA
T2 sequence (Q8NER1 whole entry): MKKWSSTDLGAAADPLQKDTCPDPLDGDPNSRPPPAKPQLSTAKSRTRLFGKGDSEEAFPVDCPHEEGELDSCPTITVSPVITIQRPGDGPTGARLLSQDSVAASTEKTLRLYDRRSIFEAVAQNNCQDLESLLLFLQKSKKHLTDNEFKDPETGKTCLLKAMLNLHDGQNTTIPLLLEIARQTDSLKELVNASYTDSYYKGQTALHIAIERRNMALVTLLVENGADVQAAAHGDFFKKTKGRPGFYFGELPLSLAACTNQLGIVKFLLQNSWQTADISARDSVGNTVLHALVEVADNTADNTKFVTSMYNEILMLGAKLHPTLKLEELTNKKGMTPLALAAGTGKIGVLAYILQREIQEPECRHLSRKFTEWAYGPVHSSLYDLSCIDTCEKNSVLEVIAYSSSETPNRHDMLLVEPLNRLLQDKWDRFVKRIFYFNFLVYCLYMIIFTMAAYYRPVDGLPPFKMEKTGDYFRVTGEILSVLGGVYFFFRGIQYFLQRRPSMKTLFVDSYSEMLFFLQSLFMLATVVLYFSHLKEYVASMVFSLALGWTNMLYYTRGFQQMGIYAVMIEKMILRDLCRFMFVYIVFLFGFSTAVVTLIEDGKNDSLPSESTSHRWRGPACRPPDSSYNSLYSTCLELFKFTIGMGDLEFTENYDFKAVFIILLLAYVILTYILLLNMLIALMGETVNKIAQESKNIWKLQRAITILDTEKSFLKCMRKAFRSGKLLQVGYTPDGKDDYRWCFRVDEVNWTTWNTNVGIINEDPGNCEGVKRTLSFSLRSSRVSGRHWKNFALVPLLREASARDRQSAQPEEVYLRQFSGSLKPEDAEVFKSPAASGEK
Sequence of hCA IV (P22748 19-312): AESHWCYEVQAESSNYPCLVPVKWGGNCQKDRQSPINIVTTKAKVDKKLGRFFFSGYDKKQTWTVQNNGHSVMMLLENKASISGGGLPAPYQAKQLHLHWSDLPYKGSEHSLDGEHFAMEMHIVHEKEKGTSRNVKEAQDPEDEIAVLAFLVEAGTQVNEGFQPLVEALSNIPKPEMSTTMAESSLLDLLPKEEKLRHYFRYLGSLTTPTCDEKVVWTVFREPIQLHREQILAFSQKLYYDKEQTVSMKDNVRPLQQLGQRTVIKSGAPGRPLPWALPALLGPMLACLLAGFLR

`NS(=O)(=O)c1ccc(N2CC[C@@H](NC(=O)Nc3ccc(F)cc3)C2)nc1` [7a, (R)-6-(3-(3-(4-Fluorophenyl)ureido)pyrrolidin-1-yl)pyridine-3-sulfonamide]: the Ki was 32.2 nM in test [1]; 6.6 nM in test [2]; 59.3 nM in test [3]; 15.1 nM in test [4]; 2660 nM in test [6]. Further, in test [5], the EC50 is more than 100 µM.

As for `NS(=O)(=O)c1ccc(N2CC[C@@H](NC(=O)Nc3ccccc3Cl)C2)nc1` [12a, (R)-6-(3-(3-(2-Chlorophenyl)ureido)pyrrolidin-1-yl)pyridine-3-sulfonamide], the Ki in test [1] worked out at 316 nM; in test [7], 82.5 nM; in test [2], 73.5 nM; in test [3] it was 83.6 nM; in test [6] it was 3000 nM. For the same molecule, in test [5], the EC50 was 11.9 µM.

As for `NS(=O)(=O)c1ccc(N2CC[C@@H](NC(=O)Nc3ccc(Cl)c(Cl)c3)C2)nc1` [14a, (R)-6-(3-(3-(3,4-Dichlorophenyl)ureido)pyrrolidin-1-yl)pyridine-3-sulfonamide], the Ki in test [2] was found to be 26.5 nM; in test [3], 7.2 nM; in test [4] it was 82.2 nM; in test [6], 4900 nM. Moreover, the EC50 in test [5] was more than 100 µM.

For `NS(=O)(=O)c1ccc(N2CC[C@@H](NC(=O)Nc3ccc4c(c3)OCCO4)C2)nc1` [15a, (R)-6-(3-(3-(2,3-Dihydrobenzo[b][1,4]dioxin-6-yl)ureido)pyrrolidin-1-yl)pyridine-3-sulfonamide], the Ki was 192 nM in test [1]; 72.2 nM in test [7]; 9.4 nM in test [2]; 6.7 nM in test [3]; 50.2 nM in test [4]; 3560 nM in test [6]. Besides, the EC50 in test [5] is more than 100 µM.

For `COc1ccccc1NC(=O)N[C@@H]1CCN(c2ccc(S(N)(=O)=O)cn2)C1` [18a, (R)-6-(3-(3-(2-Methoxyphenyl)ureido)pyrrolidin-1-yl)pyridine-3-sulfonamide], the Ki in test [1] is 36.1 nM; in test [7], 73.5 nM; in test [2], 68.7 nM; in test [3], 72.2 nM; in test [4], 287 nM; in test [6], 5080 nM. Also, the EC50 in test [5] was more than 100 µM.

Regarding `NS(=O)(=O)c1ccc(N2CC[C@@H](NC(=O)Nc3ccc([N+](=O)[O-])cc3)C2)nc1` [19a, (R)-6-(3-(3-(4-Nitrophenyl)ureido)pyrrolidin-1-yl)pyridine-3-sulfonamide], the Ki in test [1] was found to be 145 nM; in test [7], 252 nM; in test [2] it was 56.1 nM; in test [3], 57.4 nM; in test [4], 437 nM. Besides, the EC50 in test [5] is more than 100 µM.

Regarding `NS(=O)(=O)c1ccc(N2CC[C@@H](NC(=S)Nc3ccccc3F)C2)nc1` [21a, (R)-6-(3-(3-(2-Fluorophenyl)thioureido)pyrrolidin-1-yl)pyridine-3-sulfonamide], the Ki was 378 nM in test [1]; 31.3 nM in test [7]; 8.3 nM in test [3]; 14.9 nM in test [4]; 3090 nM in test [6]. For the same molecule, the EC50 in test [5] is more than 100 µM.

In the case of `NS(=O)(=O)c1ccc(N2CC[C@@H](NC(=O)Nc3c(F)cc(F)cc3Br)C2)nc1` [22a, (R)-6-(3-(3-(2-Bromo-4,6-difluorophenyl)ureido)pyrrolidin-1-yl)pyridine-3-sulfonamide], the inhibition constant (Ki) in test [2] was 41.1 nM; in test [3] it was 8.1 nM; in test [4], 446 nM; in test [6], 4880 nM. Further, the EC50 in test [5] was more than 100 µM.

As for `NS(=O)(=O)c1ccc(NC(=S)N[C@@H]2CCN(c3ccccn3)C2)cc1` [35a, (R)-4-(3-(1-(Pyridin-2-yl)pyrrolidin-3-yl)thioureido)benzenesulfonamide], the Ki came to 9.6 nM in test [1]; 48 nM in test [7]; 9.7 nM in test [2]; 9 nM in test [3]; 774 nM in test [6]. Moreover, the EC50 in test [5] is more than 100 µM.

Turning to `NS(=O)(=O)c1cccc(NC(=S)N[C@@H]2CCN(c3ccccn3)C2)c1` [36a, (R)-3-(3-(1-(Pyridin-2-yl)pyrrolidin-3-yl)thioureido)benzenesulfonamide], the Ki in test [7] is 85.1 nM; in test [2] it was 55.4 nM; in test [4], 9.6 nM; in test [6], 320 nM. The EC50 in test [5] is more than 100 µM.

For `NS(=O)(=O)c1ccc(NC(=S)N[C@@H]2CCN(c3cccc([N+](=O)[O-])n3)C2)cc1` [37a, (R)-4-(3-(1-(6-Nitropyridin-2-yl)pyrrolidin-3-yl)thioureido)benzenesulfonamide], the Ki in test [1] worked out at 16.8 nM; in test [7] it was 74.8 nM; in test [2], 175 nM; in test [3] it was 409 nM; in test [4] it was 6.7 nM; in test [6], 471 nM. Moreover, the “pain-relieving effect (licking latency, Cold plate test), in words” value in test [8] (day 15) is “more potent and effective than (R)-12a”. In test [8] (Cold plate test), the “time of peak pain-relieving effect post-administration” value stood at 30 min. Further, the “fold higher efficacy in inhibiting CA II over (R)-12a” value in test [4] (ratio of Ki) came out at 10.4 fold. Also, the EC50 in test [5] amounted to 8 µM.

Take `NS(=O)(=O)c1cccc(NC(=S)N[C@@H]2CCN(c3cccc([N+](=O)[O-])n3)C2)c1` [38a, (R)-3-(3-(1-(6-Nitropyridin-2-yl)pyrrolidin-3-yl)thioureido)benzenesulfonamide]: the Ki in test [1] worked out at 162 nM; in test [7] it was 78.5 nM; in test [2], 83.6 nM; in test [3] it was 238 nM; in test [4], 8.6 nM; in test [6], 238 nM. Further, in test [5], the EC50 is 44.2 µM.

Turning to `NS(=O)(=O)c1ccc(NC(=O)N[C@@H]2CCN(c3cccc([N+](=O)[O-])n3)C2)cc1` [43a, (R)-4-(3-(1-(6-Nitropyridin-2-yl)pyrrolidin-3-yl)ureido)benzenesulfonamide], the Ki in test [1] is 93.6 nM; in test [7] it was 68.3 nM; in test [2] it was 164 nM; in test [3] it was 83.7 nM; in test [4], 7.5 nM; in test [6], 2290 nM. Moreover, the “pain-relieving effect (licking latency, Cold plate test), in words” value in test [8] (day 15, listed as (R)-43a) was “dose-dependent effectiveness; also recorded: moderate and shorter relieving outcomes”. Besides, the “time at which the effect was suppressed” value in test [8] (Cold plate test) is on record as 75 min. Also, the “time of peak pain-relieving effect post-administration” value in test [8] (Cold plate test) came to 45 min. Moreover, in test [5], the EC50 is more than 100 µM.

With `NS(=O)(=O)c1cccc(NC(=O)N[C@@H]2CCN(c3ccc(C(F)(F)F)cn3)C2)c1` [46a, (R)-3-(3-(1-(5-(Trifluoromethyl)pyridin-2-yl)pyrrolidin-3-yl)ureido)benzenesulfonamide], the results for the inhibition constant Ki in test [7], in test [3] and in test [4] were 199 nM, 6.6 nM and 8.4 nM, respectively. Besides, in test [5], the EC50 amounted to 37.3 µM.

As usually defined, the Ki is a measure of affinity in units of concentration, obtained from inhibition or displacement. As usually defined, the EC50 is the concentration giving half of the maximal effect.
